Values quoted from earlier work, collected in US20020076434A1, “Liposomal retinoid therapy in hormone refractory prostate cancer” (Aronex Pharmaceuticals, Inc., priority 2000, published 2002).

Columns and labels:
HRPC [1] = test system: HRPC
HRPC [2] = settings: Kelly: 50 mg/m^2 every 8 hours for 8 weeks, 14 patients; Trump: days 1-14 every 22 days, 17 patients
[3] = one patient achieving CR, baseline PSA 25.0 ng/mL

Which “Number of biological responses” value (HRPC [1]; 26 HRPC patients, oral 45 mg/m^2 daily for 7 days, 7 days off, resumed Day 14) does the source give for `CC1=C(/C=C/C(C)=C/C=C/C(C)=C/C(=O)O)C(C)(C)CCC1` [oral ATRA, all trans retinoic acid] here?
The value was 4.

And the Maximum response duration (HRPC [1]; [3])?
Its Maximum response duration is 3 month.

What about the “Time serum PSA remained within normal limits after the last dose” value (HRPC [1]; [3]) of the same compound?
The value was 8 weeks.

And the Tumor response (HRPC [2])?
Its Tumor response is “little tumor response”.
